CC(=O)Oc1ccccc1C(=O)O
Settings	solubility (mole fraction)
in ethanol, 274.95 K	0.0246
in ethanol, 292.45 K	0.0487
in isopropanol, 274.9 K	0.0163
in isopropanol, 281.7 K	0.0223
in isopropanol, 283.75 K	0.0245
in n-octanol, 272.14 K	0.01
in n-octanol, 281.45 K	0.0152
in n-octanol, 291.53 K	0.0235
in n-octanol, 307.12 K	0.0434

CC(=O)Nc1ccc(O)cc1
Settings	solubility (mole fraction)
in ethanol, 284.49 K	0.0444
in ethanol, 288.38 K	0.0471
in ethanol, 293.54 K	0.0508
in ethanol, 295.69 K	0.0539
in isopropanol, 273.5 K	0.0256
in isopropanol, 289.99 K	0.0372
in isopropanol, 302.5 K	0.0473
in n-octanol, 262.78 K	0.0057
in n-octanol, 275.42 K	0.0082
in n-octanol, 285.72 K	0.0104
in n-octanol, 301.15 K	0.0151

CN=C(NC#N)NCCSCc1nc[nH]c1C
solubility (mole fraction)
Settings	281.04 K	285.25 K	289.65 K	292.46 K	296.7 K	297.26 K	306.76 K	309.1 K	311.34 K
in ethanol	–	–	–	–	–	0.005	0.0081	0.0091	0.0101
in methanol	0.0082	0.0098	0.0119	0.0138	0.0166	–	–	–	–

From BigSolDB 2.1
